For this assay, the system named is Acinetobacter baumannii ATCC 17961. Kind of assay: Antimicrobial susceptibility testing: 90% growth inhibitory concentration (IC90) determination. Type of assay: cell-based. The procedure:
Antimicrobial Susceptibility Testing:
90% Growth Inhibitory Concentration (IC90) Determination
The in vitro antimicrobial activity of the compounds was determined according to the following procedure:
The assay used a 10-points Iso-Sensitest broth medium to measure quantitatively the in vitro activity of the compounds against Acinetobacter baumannii ATCC 17961.
Stock compounds in DMSO were serially twofold diluted (e.g. range from 50 to 0.097 μM final concentration) in 384 wells microtiter plates and inoculated with 49 μl the bacterial suspension in Iso-Sensitest medium to have a final cell concentration of ˜5×10^(5) CFU/ml in a final volume/well of 50 ul/well. Microtiter plates were incubated at 35±2° C.
Bacterial cell growth was determined with the measurement of optical density at X=600 nm each 20 minutes over a time course of 16 h. Growth inhibition was calculated during the logarithmic growth of the bacterial cells with determination of the concentration inhibiting 50% (IC50) and 90% (IC90) of the growth.
Table 1 provides the 90% growth inhibitory concentrations (IC90) in micromoles per liter of the compounds of present disclosure obtained against the strain Acinetobacter baumannii ATCC 17961.

Where [1] appears, read: ATCC17961, Acinetobacter baumannii ATCC 17961, Iso-Sensitest broth, read-out: ATCC 17961 IC90.
Setting [2] is: Acinetobacter baumannii, ATCC17961, read-out: ATCC 17961 IC90, Acinetobacter baumannii ATCC 17961, Iso-Sensitest broth.

Each structure is given as a SMILES string. Structures can show the parent of a compound that is named as a salt. Where two headings read alike, the source gives them in different places.

Broadly, the IC90 is the concentration at which the effect reaches the 90% level. `Cn1c(-c2cn(C3CC3(F)F)nc2C(F)(F)F)cnc1C(=O)Nc1ccc(C(=O)N[C@H]2[C@@H]3CN(C(=O)N[C@@H]4CCC[C@@H]4N)C[C@@H]32)c(Cl)c1` (mixture of isomers) [Example 186, cis-N-[(1R,2S)-2-aminocyclopentyl]-6-[[2-chloro-4-[[5-[1-(2,2-difluorocyclopropyl)-3-(trifluoromethyl)pyrazol-4-yl]-1-methylimidazole-2-carbonyl]amino]benzoyl]amino]-3-azabicyclo[3.1.0]hexane-3-carboxamide, formate salt]: the IC90 under setting [1] is 150 nM.

Turning to `Cn1c(-c2cn(C3CC3(F)F)nc2C(F)(F)F)cnc1C(=O)Nc1ccc(C(=O)NC2[C@H]3CN(C(=O)N4CC[C@@H](N)C4)C[C@@H]23)c(Cl)c1` (mixture of isomers) [Example 192, N-[4-[[cis-3-[(3R)-3-aminopyrrolidine-1-carbonyl]-3-azabicyclo[3.1.0]hexan-6-yl]carbamoyl]-3-chlorophenyl]-5-[1-(2,2-difluorocyclopropyl)-3-(trifluoromethyl)pyrazol-4-yl]-1-methylimidazole-2-carboxamide, formate salt], the IC90 under setting [1] is 180 nM. Still for that read-out and setting: as for `Cn1c(-c2cn(C3CC3(F)F)nc2C(F)(F)F)cnc1C(=O)Nc1ccc(C(=O)N[C@H]2[C@@H]3CN(C(=O)N[C@H]4CNC[C@@H]4O)C[C@@H]32)c(Cl)c1` (mixture of isomers) [Example 381, exo-6-(2-chloro-4-(5-(1-(2,2-difluorocyclopropyl)-3-(trifluoromethyl)-1H-pyrazol-4-yl)-1-methyl-1H-imidazole-2-carboxamido)benzamido)-N-((3S,4S)-4-hydroxypyrrolidin-3-yl)-3-azabicyclo[3.1.0]hexane-3-carboxamide formate], the figure is 123 nM; as for `Cn1c(-c2cn(C3CC3(F)F)nc2C(F)(F)F)cnc1C(=O)Nc1ccc(C(=O)N[C@H]2[C@@H]3CN(C(=O)N[C@@H]4CNC[C@H]4O)C[C@@H]32)c(Cl)c1` (mixture of isomers) [Example 382, exo-6-[[2-chloro-4-[[5-[1-(2,2-difluorocyclopropyl)-3-(trifluoromethyl)pyrazol-4-yl]-1-methylimidazole-2-carbonyl]amino]benzoyl]amino]-N-[trans-4-hydroxypyrrolidin-azabicyclo[3.1.0]hexane-3-carboxamide, formate salt], 127 nM. Take `CCc1cc(NC(=O)c2ncc(-c3cn(CC#N)nc3C(F)(F)F)n2C)ccc1C(=O)N1CCN(C(=O)N2CC[C@H](C)[C@H](N)C2)CC1` (racemic) [Example 137, 5-[1-(cyanomethyl)-3-(trifluoromethyl)pyrazol-4-yl]-N-[3-ethyl-4-[4-[rac-(3R,4R)-3-amino-4-methylpiperidine-1-carbonyl]piperazine-1-carbonyl]phenyl]-1-methylimidazole-2-carboxamide;formic acid]: the IC90 under setting [1] came out at 845 nM. Consider `Cn1c(-c2cn(C3CC3(F)F)nc2C(F)(F)F)cnc1C(=O)Nc1ccc(C(=O)NC2[C@H]3CN(C(=O)N[C@H]4CCNC4)C[C@@H]23)c(Cl)c1` (mixture of isomers) [Example 189], for which the IC90 under setting [1] is 167 nM.

Consider `Cn1c(-c2cn(C3CC3(F)F)nc2C(F)(F)F)cnc1C(=O)Nc1ccc(C(=O)NCC2CCCN(C(=O)N[C@H]3CNC[C@@H]3O)C2)c(Cl)c1` (mixture of isomers) [Example 226, formate], for which the IC90 under setting [2] stood at 259 nM. For `Cn1c(-c2cn(C3CC3(F)F)nc2C(F)(F)F)cnc1C(=O)Nc1ccc(C(=O)NC2CCN(C(=O)N[C@H]3C[C@@H](N)C3)CC2)c(Cl)c1` (mixture of isomers) [Example 237, rac-N-((1s,3s)-3-aminocyclobutyl)-4-(2-chloro-4-(5-(1-(2,2-difluorocyclopropyl)-3-(trifluoromethyl)-1H-pyrazol-4-yl)-1-methyl-1H-imidazole-2-carboxamido)benzamido)piperi-dine-1-carboxamide formate], under setting [1], the IC90 came to 271 nM. `Cn1c(-c2cn(CC3CC3(F)F)nc2C(F)(F)F)cnc1C(=O)Nc1ccc(C(=O)N2CCN(C(=O)N[C@H]3C[C@@H](N)C3)CC2)c(Cl)c1` (mixture of isomers) [Example 254, rac-N-((1s,3s)-3-aminocyclobutyl)-4-(2-chloro-4-(5-(1-((2,2-difluorocyclopropyl)methyl)-3-(trifluoromethyl)-1H-pyrazol-4-yl)-1-methyl-1H-imidazole-2-carboxamido)benzoyl)piperazine-1-carboxamide hydrochloride]: the 90% effect concentration (IC90) under setting [2] worked out at 311 nM. `Cn1c(-c2cn(C3CC3(F)F)nc2C(F)(F)F)cnc1C(=O)Nc1ccc(C(=O)N2C[C@H]3CNC[C@H]3C2)c(Cl)c1` (mixture of isomers) [Example 271, rac-N-(3-chloro-4-((3aR,6aS)-octahydropyrrolo[3,4-c]pyrrole-2-carbonyl)phenyl)-5-(1-(2,2-difluorocyclopropyl)-3-(trifluoromethyl)-1H-pyrazol-4-yl)-1-methyl-1H-imidazole-2-carboxamide formate]: under setting [1], the IC90 worked out at 335 nM. Same read-out and setting: with `Cn1c(-c2cn(CC(F)F)nc2C(F)(F)F)cnc1C(=O)Nc1ccc(S(=O)(=O)N2CCN(C(=O)N[C@@H]3CNC[C@H]3O)CC2)cc1` (racemic) [Example 279, rac-4-((4-(5-(1-(2,2-difluoroethyl)-3-(trifluoromethyl)-1H-pyrazol-4-yl)-1-methyl-1H-imidazole-2-carboxamido)phenyl)sulfonyl)-N-((3R,4R)-4-hydroxypyrrolidin-3-yl)piperazine-1-carboxamide formate] the figure was 344 nM; with `CO[C@H]1CNC[C@@H]1NC(=O)c1ccc(NC(=O)c2ncc(-c3cn(C4CC4(F)F)nc3C(F)(F)F)n2C)cc1Cl` (mixture of isomers) [Example 280, N-(3-chloro-4-((trans-4-methoxypyrrolidin-3-yl)carbamoyl)phenyl)-5-(1-(2,2-difluorocyclopropyl)-3-(trifluoromethyl)-1H-pyrazol-4-yl)-1-methyl-1H-imidazole-2-carboxamide formate], 345 nM. The same measure, in the same setting: as for `Cn1c(-c2cn(C3CC3(F)F)nc2C(F)(F)F)cnc1C(=O)Nc1ccc(C(=O)NC2C[C@@H]3CC[C@@H](C2)N3)c(Cl)c1` (mixture of isomers) [Example 283, rac-N-(4-(((1R,3s,5S)-8-azabicyclo[3.2.1]octan-3-yl)carbamoyl)-3-chlorophenyl)-5-(1-(2,2-difluorocyclopropyl)-3-(trifluoromethyl)-1H-pyrazol-4-yl)-1-methyl-1H-imidazole-2-carboxamide formate], the figure is 348 nM; as for `Cn1c(-c2cn(C3CC3(F)F)nc2C(F)(F)F)cnc1C(=O)Nc1ccc(C(=O)N2C[C@H]3CN(C(=O)N[C@H]4CNC[C@@H]4O)C[C@H]3C2)c(Cl)c1` (mixture of isomers) [Example 288, rac-(3aR,6aS)-5-(2-chloro-4-(5-(1-(2,2-difluorocyclopropyl)-3-(trifluoromethyl)-1H-pyrazol-4-yl)-1-methyl-1H-imidazole-2-carboxamido)benzoyl)-N-((3R,4R)-4-hydroxypyrrolidin-3-yl)hexahydropyrrolo[3,4-c]pyrrole-2(1H)-carboxamide formate], 354 nM. In the case of `CN(C(=O)c1ccc(NC(=O)c2ncc(-c3cn(C4CC4(F)F)nc3C(F)(F)F)n2C)cc1Cl)C1CCN(C(=O)N[C@H]2C[C@@H](N)C2)CC1` (mixture of isomers) [Example 294, rac-N-((1s,3s)-3-aminocyclobutyl)-4-(2-chloro-4-(5-(1-(2,2-difluorocyclopropyl)-3-(trifluoromethyl)-1H-pyrazol-4-yl)-1-methyl-1H-imidazole-2-carboxamido)-N-methylbenzamido)piperidine-1-carboxamide formate], under setting [1], the IC90 was 363 nM. The same measure, in the same setting: as for `Cn1c(-c2cn(C3CC3(F)F)nc2C(F)(F)F)cnc1C(=O)Nc1ccc(C(=O)N2CC3C(C2)C3NC(=O)N[C@H]2CNC[C@@H]2O)c(Cl)c1` (mixture of isomers) [Example 300, rac-N-(3-chloro-4-(6-(3-((3R,4R)-4-hydroxypyrrolidin-3-yl)ureido)-3-azabicyclo[3.1.0]hexane-3-carbonyl)phenyl)-5-(1-(2,2-difluorocyclopropyl)-3-(trifluoromethyl)-1H-pyrazol-4-yl)-1-methyl-1H-imidazole-2-carboxamide formate], the figure is 367 nM.

`Cn1c(-c2cn(C3CC3(F)F)nc2C(F)(F)F)cnc1C(=O)Nc1ccc(C(=O)NCC2CC3CN(C(=O)N[C@H]4CNC[C@@H]4O)CC3C2)c(Cl)c1` (mixture of isomers) [Example 310, rac-5-((2-chloro-4-(5-(1-(2,2-difluorocyclopropyl)-3-(trifluoromethyl)-1H-pyrazol-4-yl)-1-methyl-1H-imidazole-2-carboxamido)benzamido)methyl)-N-((3R,4R)-4-hydroxypyrrolidin-3-yl)hexahydrocyclopenta[c]pyrrole-2(1H)-carboxamide formate]: under setting [1], the IC90 came out at 379 nM. Same read-out and setting: as for `Cn1c(-c2cn(C3CC3(F)F)nc2C(F)(F)F)cnc1C(=O)Nc1ccc(C(=O)N2C[C@H]3CNC[C@@H]3C2)c(Cl)c1` (mixture of isomers) [Example 329, rac-N-(3-chloro-4-((3aR,6aR)-octahydropyrrolo[3,4-c]pyrrole-2-carbonyl)phenyl)-5-(1-(2,2-difluorocyclopropyl)-3-(trifluoromethyl)-1H-pyrazol-4-yl)-1-methyl-1H-imidazole-2-carboxamide formate], the figure is 420 nM.
